# Reference: patent publication US20230312646A1, “ANTIBACTERIAL PEPTIDES” (priority 2020, published 2023)
# Numbered stars: 1 amine (or outer) side, 2 acyl side, 3 side chain; on linkers, the order of the positions; unused ones are H or OH. Square brackets hold non-standard residues; d marks the D form. Peptide text beside a SMILES is read from it. * marks the point of attachment. NEtAsp = CCN([C@@H](CC(=O)[*:3])C(=O)[*:2])[*:1]; Acryloyl(3-(3-pyridyl),E) = O=C(/C=C/c1cccnc1)*; Cinnamoyl(4-F) = O=C(/C=C/c1ccc(F)cc1)*; Caffeoyl = O=C(/C=C/c1ccc(O)c(O)c1)*; NMeCha = CN[C@@H](CC1CCCCC1)C(=O)O; Hydrocinnamoyl = O=C(CCc1ccccc1)*; NH(4-MeO-phenyl) = COc1ccc(N*)cc1; NMeR = CN[C@@H](CCCNC(=N)N)C(=O)O; X2 = O=C(CN(Cc1ccccn1)[*:1])[*:2]; X7 = C[N+](C)=C(NCC(=O)*)N1CCOCC1; NMeF = CN[C@@H](Cc1ccccc1)C(=O)O; X4 = O=C([O-])[C@H](Cc1ccccc1)N*; NFurfurylGly = O=C(O)CNCc1ccco1; NMeQ = CN[C@@H](CCC(N)=O)C(=O)O; Cha = N[C@@H](CC1CCCCC1)C(=O)O; NMeD = CN[C@@H](CC(=O)O)C(=O)O; X1 = O=C(/C=C/c1ccc2ccccc2c1)*; X3 = CN(C)C(NCC(=O)*)=[N+](C)C; NMeL = CN[C@@H](CC(C)C)C(=O)O; Phe(ol) = N[C@H](CO)Cc1ccccc1; NHPhenethyl = c1ccc(CCN*)cc1; X8 = NC[C@H](Cc1ccccc1)N*; X6 = O=C(/C=C/c1ccccc1)*; CO = O=C([*:1])[*:2]
# Biological target: T1, Escherichia coli SC (^EcSC) (Escherichia coli, UniProt P0A988)
# T1 construct: His tag (inferred from the pET15b vector and Ni-NTA purification) (N); made in house; host or cells: E. coli
# T1 sequence (P0A988 whole entry): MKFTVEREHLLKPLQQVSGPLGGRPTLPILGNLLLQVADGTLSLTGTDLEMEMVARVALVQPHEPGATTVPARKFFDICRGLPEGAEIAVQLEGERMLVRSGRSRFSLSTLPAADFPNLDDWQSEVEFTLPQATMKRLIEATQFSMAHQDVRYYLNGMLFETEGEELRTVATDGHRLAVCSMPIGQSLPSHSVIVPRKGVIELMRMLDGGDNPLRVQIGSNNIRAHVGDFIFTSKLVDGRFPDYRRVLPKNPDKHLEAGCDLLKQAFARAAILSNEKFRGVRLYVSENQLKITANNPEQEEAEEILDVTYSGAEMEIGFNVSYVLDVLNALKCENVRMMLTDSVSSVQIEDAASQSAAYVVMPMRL
# Assay: biochemical
# Assay type: binding
# Settings: for ΔG (kcal/mol) / Kd: ITC at 298.15 K (25° C.); for Kd: Kd (nM); for kon: read-out: kon (M^-1.s^-1)
# Procedure: The procedure has been described previously (Wolff, P.; Oliéric, V.; Briand, J. P.; Chaloin, O.; Dejaegere, A.; Dumas, P.; Ennifar, E.; Guichard, G.; Wagner, J.; Burnouf, D. Y., Structure-Based Design of Short Peptide Ligands Binding onto the E. coli Processivity Ring. J. Med. Chem. 2011, 54 (13), 4627-4637). Briefly, E.coli cells were transformed with plasmids pET15b containing the dnaN gene from E. coli and were grown in LB at 37° C. to OD 0.5, then induced by IPTG (0.1 mM) at 28° C. overnight. dnaN proteins fractions were first enriched on a Ni-NTA column, eluted with a histidine step (300 mM) and further purified on a Source Q column in buffer containing 20 mM Tris HCI pH 7.5, 0.5 mM EDTA and 10% (v/v) glycerol, using a gradient from 0 to 0.5 M NaCl. After a final ultracentrifugation (45 K, 1 h, 20° C.), soluble proteins were concentrated on a Centricon 30 K (Millipore) in the same buffer and stored at 4° C. in 2 M ammonium sulfate. Buffer exchange was performed on Centrikon 10 K at 4° C. before use and protein quality was assessed by DLS.
# ITC experiments were performed using an iTC200 or a PEAQ-ITC instrument (Microcal Malvern Panalytical). Peptides (300 or 600 µM) were titrated at 25° C. by sequential injections (usually 2 µl each) into an SC solution (30 or 60 µM). Data were corrected for heat of injection by subtracting the signal of the titration of peptides into proteiN-free buffer solution (Hepes 10 mM pH 7.4, NaCl 0.15 M, EDTA 3 mM). Each titration was performed at least twice. Analyses of experimental data were performed following a classical treatment with the AFFINImeter software (https://www.affinimeter.com; S4S, Santiago de Compostela, Spain). In addition, kinetic information was obtained in some cases with kinITC as implemented in the software AFFINImeter.
# All newly synthesized peptides were tested for their interaction with ^EcSC by ITC at 25° C. As a general rule, all thermodynamic profiles reveal an exothermic interaction, and a non-favorable entropic component. The resulting negative Gibb’s free energies characterize a spontaneous interaction. The analysis of raw data by the Affinimeter® software also gave access to kinetics rate constant of the interaction.
Compound,ΔG (kcal/mol),Kd,kon,"koff, fold higher than for peptide 1 (P1) (compared to P1)","kon value, fold higher than for peptide 1 (P1) (compared to P1)"
CC(=O)N[C@@H](CCC(N)=O)C(=O)N[C@@H](CC1CCCCC1)C(=O)N[C@H](C(=O)N[C@@H](CC(C)C)C(=O)N[C@@H](Cc1ccccc1)C(=O)O)[C@@H](C)O [Asp to Thr substitution] (Ac-Q[Cha]TLF-OH),-9.2 (+/- 0.1) kcal/mol,180 nM,,,
CC(=O)N(C)[C@@H](CCC(N)=O)C(=O)N[C@@H](CC1CCCCC1)C(=O)N[C@@H](CC(=O)O)C(=O)N[C@@H](CC(C)C)C(=O)N[C@@H](Cc1ccccc1)C(=O)O [P2] (Ac-[NMeQ][Cha]DLF-OH),-7.7 (± 0.2) kcal/mol,> 1000 nM,21000 M⁻¹ s⁻¹,,
CC(=O)N[C@@H](CCC(N)=O)C(=O)N(C)[C@@H](CC1CCCCC1)C(=O)N[C@@H](CC(=O)O)C(=O)N[C@@H](CC(C)C)C(=O)N[C@@H](Cc1ccccc1)C(=O)O [P3] (Ac-Q[NMeCha]DLF-OH),-6.0 (± 0.1) kcal/mol,> 1000 nM,,,
CC(=O)N[C@@H](CCC(N)=O)C(=O)N[C@@H](CC1CCCCC1)C(=O)N(C)[C@@H](CC(=O)O)C(=O)N[C@@H](CC(C)C)C(=O)N[C@@H](Cc1ccccc1)C(=O)O [P4] (Ac-Q[Cha][NMeD]LF-OH),-9.5 (± 0.1) kcal/mol,114 nM,210000 M⁻¹ s⁻¹,2.5 fold,5 fold
CCN(C(=O)[C@H](CC1CCCCC1)NC(=O)[C@H](CCC(N)=O)NC(C)=O)[C@@H](CC(=O)O)C(=O)N[C@@H](CC(C)C)C(=O)N[C@@H](Cc1ccccc1)C(=O)O [P5] (Ac-Q[Cha][NEtAsp]LF-OH),-8.57 (± 0.07) kcal/mol,523 nM,28800 M⁻¹ s⁻¹,,
CC(=O)N[C@@H](CCC(N)=O)C(=O)N[C@@H](CC1CCCCC1)C(=O)N[C@@H](CC(=O)O)C(=O)N(C)[C@@H](CC(C)C)C(=O)N[C@@H](Cc1ccccc1)C(=O)O [P6] (Ac-Q[Cha]D[NMeL]F-OH),-5.2 (± 0.2) kcal/mol,> 1000 nM,,,
CC(=O)N[C@@H](CCC(N)=O)C(=O)N[C@@H](CC1CCCCC1)C(=O)N[C@@H](CC(=O)O)C(=O)N[C@@H](CC(C)C)C(=O)N(C)[C@@H](Cc1ccccc1)C(=O)O [P7] (Ac-Q[Cha]DL[NMeF]-OH),-7.1 (± 0.1) kcal/mol,> 1000 nM,10000 M⁻¹ s⁻¹,,
CC(C)C[C@H](NC(=O)[C@H](CC(=O)O)NC(=O)[C@H](CC1CCCCC1)NC(=O)[C@H](CCC(N)=O)NC(=O)CNCc1ccccn1)C(=O)N[C@@H](Cc1ccccc1)C(=O)O [P8] (H-[X2]Q[Cha]DLF-OH),,172 nM,34000 M⁻¹ s⁻¹,,
CC(C)C[C@H](NC(=O)[C@H](CC(=O)O)NC(=O)[C@H](CC1CCCCC1)NC(=O)[C@H](CCC(N)=O)NC(=O)CNCc1ccco1)C(=O)N[C@@H](Cc1ccccc1)C(=O)O [P9] (H-[NFurfurylGly]Q[Cha]DLF-OH),-9.2 (± 0.1) kcal/mol,171 nM,48000 M⁻¹ s⁻¹,,
CC(=O)N[C@@H](CCCNC(=N)N)C(=O)N[C@@H](CCC(N)=O)C(=O)N[C@@H](CC1CCCCC1)C(=O)N[C@@H](CC(=O)O)C(=O)N[C@@H](CC(C)C)C(=O)N[C@@H](Cc1ccccc1)C(=O)O [P12] (Ac-RQ[Cha]DLF-OH),-8.60 (± 0.08) kcal/mol,498 nM,37000 M⁻¹ s⁻¹,2.5 fold,
CC(=O)N(C)[C@@H](CCCNC(=N)N)C(=O)N[C@@H](CCC(N)=O)C(=O)N[C@@H](CC1CCCCC1)C(=O)N[C@@H](CC(=O)O)C(=O)N[C@@H](CC(C)C)C(=O)N[C@@H](Cc1ccccc1)C(=O)O [P13] (Ac-[NMeR]Q[Cha]DLF-OH),-7.7 (± 0.1) kcal/mol,2130 nM,21000 M⁻¹ s⁻¹,4 fold,
CC(C)C[C@H](NC(=O)[C@H](CC(=O)O)NC(=O)[C@H](CC1CCCCC1)NC(=O)[C@H](CCC(N)=O)NC(=O)CNC(N1CCOCC1)=[N+](C)C)C(=O)N[C@@H](Cc1ccccc1)C(=O)[O-] [P14] (X7-Q[Cha]DL-X4),-9.0 (± 0.1) kcal/mol,276 nM,34000 M⁻¹ s⁻¹,,
CC(C)C[C@H](NC(=O)[C@H](CC(=O)O)NC(=O)[C@H](CC1CCCCC1)NC(=O)[C@H](CCC(N)=O)NC(=O)CNC(N(C)C)=[N+](C)C)C(=O)N[C@@H](Cc1ccccc1)C(=O)[O-] [P15] (X3-Q[Cha]DL-X4),-8.7 (± 0.1) kcal/mol,353 nM,34000 M⁻¹ s⁻¹,,
"CC(C)C[C@H](NC(=O)[C@H](CC(=O)O)NC(=O)[C@H](CC1CCCCC1)NC(=O)[C@H](CCC(N)=O)NC(=O)/C=C/c1cccnc1)C(=O)N[C@@H](Cc1ccccc1)C(=O)O [P16] ({Acryloyl(3-(3-pyridyl),E)}-Q[Cha]DLF-OH)",-9.3 (± 0.2) kcal/mol,156 nM,46000 M⁻¹ s⁻¹,,
CC(C)C[C@H](NC(=O)[C@H](CC(=O)O)NC(=O)[C@H](CC1CCCCC1)NC(=O)[C@H](CCC(N)=O)NC(=O)/C=C/c1ccccc1)C(=O)N[C@@H](Cc1ccccc1)C(=O)O [P17] (X6-Q[Cha]DLF-OH),-9.4 (± 0.2) kcal/mol,129 nM,46000 M⁻¹ s⁻¹,,
CC(C)C[C@H](NC(=O)[C@H](CC(=O)O)NC(=O)[C@H](CC1CCCCC1)NC(=O)[C@H](CCC(N)=O)NC(=O)/C=C/c1ccc(F)cc1)C(=O)N[C@@H](Cc1ccccc1)C(=O)O [P18] ({Cinnamoyl(4-F)}-Q[Cha]DLF-OH),,144 nM,,,
CC(C)C[C@H](NC(=O)[C@H](CC(=O)O)NC(=O)[C@H](CC1CCCCC1)NC(=O)[C@H](CCC(N)=O)NC(=O)CCc1ccccc1)C(=O)N[C@@H](Cc1ccccc1)C(=O)O [P19] (Hydrocinnamoyl-Q[Cha]DLF-OH),,123 nM,55000 M⁻¹ s⁻¹,,
CC(C)C[C@H](NC(=O)[C@H](CC(=O)O)NC(=O)[C@H](CC1CCCCC1)NC(=O)[C@H](CCC(N)=O)NC(=O)/C=C/c1ccc2ccccc2c1)C(=O)N[C@@H](Cc1ccccc1)C(=O)O [P20] (X1-Q[Cha]DLF-OH),,89 nM,65000 M⁻¹ s⁻¹,,
CC(C)C[C@H](NC(=O)[C@H](CC(=O)O)NC(=O)[C@H](CC1CCCCC1)NC(=O)[C@H](CCC(N)=O)NC(=O)/C=C/c1ccc(O)c(O)c1)C(=O)N[C@@H](Cc1ccccc1)C(=O)O [P21] (Caffeoyl-Q[Cha]DLF-OH),,99 nM,46000 M⁻¹ s⁻¹,,
COc1ccc(NC(=O)N[C@@H](CCC(N)=O)C(=O)N[C@@H](CC2CCCCC2)C(=O)N[C@@H](CC(=O)O)C(=O)N[C@@H](CC(C)C)C(=O)N[C@@H](Cc2ccccc2)C(=O)O)cc1 [P22] ({NH(4-MeO-phenyl)-CO}-Q[Cha]DLF-OH),,73 nM,40000 M⁻¹ s⁻¹,,
CC(=O)N[C@@H](CCC(N)=O)C(=O)N[C@@H](CC1CCCCC1)C(=O)N[C@@H](CC(=O)O)C(=O)N[C@@H](CC(C)C)C(=O)NCCc1ccccc1 [P23] (Ac-Q[Cha]DL-NHPhenethyl),-8.2 (± 0.05) kcal/mol,922 nM,19000 M⁻¹ s⁻¹,,
CC(=O)N[C@@H](CCC(N)=O)C(=O)N[C@@H](CC1CCCCC1)C(=O)N[C@@H](CC(=O)O)C(=O)N[C@@H](CC(C)C)C(=O)N[C@H](CO)Cc1ccccc1 [P24] (Ac-Q[Cha]DL[Phe(ol)]),-8.4 (± 0.1) kcal/mol,751 nM,26000 M⁻¹ s⁻¹,,
CC(=O)N[C@@H](CCC(N)=O)C(=O)N[C@@H](CC1CCCCC1)C(=O)N[C@@H](CC(=O)O)C(=O)N[C@@H](CC(C)C)C(=O)N[C@H](CN)Cc1ccccc1 [P25] (Ac-Q[Cha]DL-X8),-8.27 (± 0.03) kcal/mol,877 nM,12000 M⁻¹ s⁻¹,,
CC(=O)N[C@@H](CCC(N)=O)C(=O)N[C@@H](CC1CCCCC1)C(=O)N[C@@H](CC(=O)O)C(=O)N[C@@H](CC(C)C)C(=O)N[C@@H](Cc1ccccc1)C(N)=O [P26] (Ac-Q[Cha]DLF-NH2),-9.0 (± 0.1) kcal/mol,268 nM,33000 M⁻¹ s⁻¹,,
